Test results: article PMC9100673, “Acridine Based N-Acylhydrazone Derivatives as Potential Anticancer Agents: Synthesis, Characterization and ctDNA/HSA Spectroscopic Binding Properties” (Molecules, 2022)

Legend:
[1] = tested on: A549 cells; assay: MTT assay, metabolic activity of A549 cells; format: cell-based, human; conditions: for SI, selectivity index: 48 h, IC50 CCD-18Co / IC50 A549; for IC50: Homo sapiens
Description: The effect of acridine-benzohydrazides (3a–3d) on the metabolic activity of the lung adenocarcinoma cell line (A549) and the normal colon fibroblast cell line (CCD-18Co) was evaluated using a 3-(4,5-dimethylthiazol-2-yl)-2,5-diphenyltertrazolium bromide (MTT) cell assay. This assay is based on the metabolization of yellow MTT to purple formazan crystal by mitochondrial dehydrogenases, and therefore only metabolic active cells are capable of that reaction. The CCD-18Co cell line was used as a control to check for derivatives selectivity. The doxorubicin belongs to a group of anthracyclines, which represent the chemotherapeutic regiments for the treatment of NSCLC (non-small cell lung carcinoma) even today, and acts as antineoplastic mainly by interaction with the DNA topoisomerase II and by creating DNA single- and double-strand breaks. Previous studies described detailed cytotoxic effects of doxorubicin in the human lung adenocarcinoma A549 cell line. Doxorubicin resembles our compounds in its biological action; therefore, it was employed as a positive control.
Human lung carcinoma cell line A549 and CCD-18Co colon fibroblasts were purchased from the American Type Culture Collection (ATCC, Rockville, MD, USA). The A549 cells were cultured in a complete RPMI-1640 medium (Sigma-Aldrich, St. Louis, MO, USA) and CCD-18Co cells were cultured in a minimum essential medium (MEM) (PAN-Biotech GmbH, Aidenbach, Germany) at 37 °C, 95% humidity and 5% CO2. The media were supplemented with 10% fetal bovine serum (FBS, Biosera, Nuaille, France) and antibiotics (1% Antibiotic-Antimycotic 100 × and 50 × 10^−3 g L^−1 gentamicin, Biosera). Prior to the selected treatments, cells were seeded on 6- and/or 96-well plates (TPP, Trasadingen, Switzerland) and left to settle for 24 h. The acridine compounds solutions (at concentrations ranging from 5–75 µM) were then added to cells for 24 or 48 h, and analysis was subsequently performed.
MTT assays were performed in order to evaluate changes in the metabolic activity of cells that had occurred as a consequence of treatment with the acridine compounds. A549 cells (15 × 10^3 cells/cm^2) and CCD-18Co (15.625 × 10^3 cells/cm^2) were seeded in 96-well microplates. The A549 cells were treated for 24 and 48 h, and the CCD-18Co cells were treated for 48 h with different concentrations (5, 25, 50 and 75 µM) of the derivatives. After the treatment, the MTT (3-(4,5-dimethylthiazol-2-yl)-2,5-diphenyltertrazolium bromide) solution in PBS (5 mg mL^−1) was added to each well. The reaction was stopped after 4 h incubation, and the formazan was dissolved by the addition of SDS at a final concentration of 3.3%. The absorbance of formazan (λ = 584 nm) was measured using a BMG FLUOstar Optima spectrometer (BMG Labtech GmbH, Offenburg, Germany). The results were evaluated as percentages of the absorbance of the untreated control. Results are presented as the average percentage of cells from three independent experiments. IC50 values for the derivatives were extrapolated from a sigmoidal fit (dose-response curve) to the metabolic activity data using OriginPro 8.5.0 SR1 (OriginLab Corp., Northampton, MA, USA).

[2] = biological target: hTopo IIα (Homo sapiens, UniProt P11388); assay: Topo IIα kDNA decatenation assay; format: biochemical; conditions: 25, 50 and 100 μM
Description: The Topo IIα enzyme catalysed the decatenation of catenated kDNA to closed circular decatenated kDNA. In one specific case, linear (L) and nicked-opened (NC) forms of DNA could by observed. […] The m-Amsacrine (AMSA) (lane 2) was the observed band for catenated DNA.
(§1) Figure 12 The result of Topo I/IIα activity tests in the presence of derivatives 3a–3d. (A) Electrophoretogram for inhibition relaxation activity of hTopo I (2.5 U) by derivatives 3a–3d in concentrations of 25, 50 and 100 μM (lane 5–16), substrate-free SC pBR322 (0.5 μg) (lane 4), camptothecin (CPT, lane 2) and plasmid+hTopo I control (lane 3). (NOC—nicked-opened DNA form; R—relaxed DNA form; SC—supercoiled DNA form). (B) Electrophoretogram for inhibition decatenation activity of hTopo IIα (0.5 U) by derivatives 3a–3d in concentrations of 25, 50 and 100 μM (lane 5–16), substrate-free catenated kinetoplast DNA (cat kDNA) (0.5 μg) (lane 4), m-Amsacrine (AMSA, lane 2) and plasmid +hTopo IIα control (lane 3). (decat DNA—decatenated DNA; NC—nicked circular DNA form; L—linear DNA form).

[3] = biological target: T1, hTopo I (Homo sapiens, UniProt P11387); assay: Topo I DNA relaxation assay; format: biochemical; conditions: 25, 50 and 100 μM; pBR322
T1 sequence (P11387 1-765): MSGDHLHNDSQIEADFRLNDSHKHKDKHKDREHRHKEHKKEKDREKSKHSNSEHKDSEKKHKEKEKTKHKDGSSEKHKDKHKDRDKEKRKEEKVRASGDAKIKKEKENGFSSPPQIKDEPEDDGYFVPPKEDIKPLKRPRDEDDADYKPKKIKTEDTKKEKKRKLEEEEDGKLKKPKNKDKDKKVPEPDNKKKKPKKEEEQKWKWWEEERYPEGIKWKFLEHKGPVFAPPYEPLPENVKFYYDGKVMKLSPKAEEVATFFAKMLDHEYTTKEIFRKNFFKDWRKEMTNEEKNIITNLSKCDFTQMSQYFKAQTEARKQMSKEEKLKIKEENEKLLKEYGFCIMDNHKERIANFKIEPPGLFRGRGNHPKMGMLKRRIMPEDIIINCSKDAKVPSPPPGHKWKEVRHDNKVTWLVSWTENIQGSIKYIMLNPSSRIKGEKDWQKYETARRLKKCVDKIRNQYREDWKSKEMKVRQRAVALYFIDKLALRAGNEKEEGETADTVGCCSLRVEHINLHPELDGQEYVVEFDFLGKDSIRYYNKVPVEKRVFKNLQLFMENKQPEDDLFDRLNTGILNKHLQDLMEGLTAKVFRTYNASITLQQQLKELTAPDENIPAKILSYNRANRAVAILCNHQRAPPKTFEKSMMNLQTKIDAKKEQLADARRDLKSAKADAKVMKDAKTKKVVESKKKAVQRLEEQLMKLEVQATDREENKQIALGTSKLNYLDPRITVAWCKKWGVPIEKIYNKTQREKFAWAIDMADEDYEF
From the text: Topo I enzymes convert the supercoiled (SC) form DNA to relaxed (R) form and nicked-open-circular (NOC) DNA. The NOC form is circular dsDNA with one nicked strength; Topo I nicked only one strength. SC form DNA migrate the fastest in gel, NOC migrates the slowest, and the migration speed of R DNA is in the middle of these two forms. In an electrophoretogram with active Topo I enzymes, SC DNA is not observed, but R and NOC DNA forms can be seen. In the case of Topo I inhibition, bends for R and NOC DNA forms are not observed. The results electrophoretogram effect of derivatives 3a–3d on activity topoisomerase I show Figure 12A.
as §1

Sequence of hTopo IIα (P11388 whole entry): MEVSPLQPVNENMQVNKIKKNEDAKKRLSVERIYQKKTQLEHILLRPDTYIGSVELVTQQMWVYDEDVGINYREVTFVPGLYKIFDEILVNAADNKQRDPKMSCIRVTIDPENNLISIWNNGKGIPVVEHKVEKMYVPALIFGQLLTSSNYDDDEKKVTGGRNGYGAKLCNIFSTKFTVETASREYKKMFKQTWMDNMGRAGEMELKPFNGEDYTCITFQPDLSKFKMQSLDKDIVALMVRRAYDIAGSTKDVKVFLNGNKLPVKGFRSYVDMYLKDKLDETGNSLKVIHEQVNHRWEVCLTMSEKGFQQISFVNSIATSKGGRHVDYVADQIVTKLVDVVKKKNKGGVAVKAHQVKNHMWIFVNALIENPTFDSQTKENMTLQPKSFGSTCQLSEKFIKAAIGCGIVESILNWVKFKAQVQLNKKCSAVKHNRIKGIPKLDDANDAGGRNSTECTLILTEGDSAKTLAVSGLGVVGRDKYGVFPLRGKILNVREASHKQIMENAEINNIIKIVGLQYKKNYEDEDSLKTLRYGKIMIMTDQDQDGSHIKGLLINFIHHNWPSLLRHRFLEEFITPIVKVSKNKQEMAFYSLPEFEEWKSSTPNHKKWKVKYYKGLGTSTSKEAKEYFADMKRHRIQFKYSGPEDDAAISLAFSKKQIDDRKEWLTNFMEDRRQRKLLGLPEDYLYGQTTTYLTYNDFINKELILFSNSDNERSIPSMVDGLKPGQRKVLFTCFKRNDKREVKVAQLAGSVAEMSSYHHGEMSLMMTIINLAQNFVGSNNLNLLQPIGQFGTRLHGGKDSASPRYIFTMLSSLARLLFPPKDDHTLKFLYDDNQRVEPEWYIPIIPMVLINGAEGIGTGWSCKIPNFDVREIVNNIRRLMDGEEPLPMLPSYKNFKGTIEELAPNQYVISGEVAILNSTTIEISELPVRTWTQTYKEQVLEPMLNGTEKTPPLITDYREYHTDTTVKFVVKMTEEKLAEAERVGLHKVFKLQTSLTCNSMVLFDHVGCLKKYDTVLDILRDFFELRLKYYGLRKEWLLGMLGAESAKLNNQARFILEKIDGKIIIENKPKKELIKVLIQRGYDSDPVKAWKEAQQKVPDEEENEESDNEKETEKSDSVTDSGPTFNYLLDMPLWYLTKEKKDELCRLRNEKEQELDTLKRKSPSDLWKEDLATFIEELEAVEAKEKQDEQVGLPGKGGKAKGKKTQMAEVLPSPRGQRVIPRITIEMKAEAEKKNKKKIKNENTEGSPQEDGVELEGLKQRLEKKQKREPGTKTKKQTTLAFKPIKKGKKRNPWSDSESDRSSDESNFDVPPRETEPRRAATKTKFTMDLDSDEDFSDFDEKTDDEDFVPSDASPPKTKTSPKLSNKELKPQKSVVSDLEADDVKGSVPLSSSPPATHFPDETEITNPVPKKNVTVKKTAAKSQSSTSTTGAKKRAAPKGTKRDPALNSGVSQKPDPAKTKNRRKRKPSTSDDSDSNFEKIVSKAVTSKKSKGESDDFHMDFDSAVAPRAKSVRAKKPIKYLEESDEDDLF

Row | melting point | IC50 ([1]; A549, 24 h) | IC50 ([1]; A549, 48 h) | inhibition of decatenation activity of Topo IIα [2] | SMILES | SI, selectivity index [1] | inhibition of relaxation activity of Topo I [3]
1 | 269 to 270 °C | > 75 µM | 55 µM | partial inhibition | O=C(N/N=C/c1cccc2cc3ccccc3nc12)c1ccc(Br)cc1 [3d, N′-[(E)-Acridin-4-ylmethylidene]-4-bromobenzohydrazide] | 0.31 | might inhibit the relaxation activity of Topo I
2 | 266 to 267 °C | 73 µM | 45 µM | partial inhibition | O=C(N/N=C/c1cccc2cc3ccccc3nc12)c1ccc(Cl)cc1 [3c, N′-[(E)-Acridin-4-ylmethylidene]-4-chlorobenzohydrazide] | 0.36 | might inhibit the relaxation activity of Topo I
3 | 235 to 236 °C | > 75 µM | 43 µM | No obvious inhibitory effects | O=C(N/N=C/c1cccc2cc3ccccc3nc12)c1ccccc1 [3a, N′-[(E)-(Acridin-4-yl)methylidene]benzohydrazide] | – | did not have the potential to inhibit
4 | 229 to 230 °C | > 75 µM | 37 µM | No obvious inhibitory effects | O=C(N/N=C/c1cccc2cc3ccccc3nc12)c1ccc(F)cc1 [3b, N′-[(E)-Acridin-4-ylmethylidene]-4-fluorobenzohydrazide] | 0.22 | did not have the potential to inhibit
